Data published in patent US4395401A, “Renally active dipeptides” (SmithKline Beckman Corporation, priority 1981, dated 1983).

Assays:
anesthetized dogs [1] = assay: Secondary testing (ED15); format: in vivo, dog
anesthetized dogs [2] = assay: Infusion to anesthetized dogs, measuring renal blood flow and renal vascular resistance (procedure of U.S. Pat. No. 4,197,297); format: in vivo, dog
From the text: Specific results are included in the examples.

[3] = infusion 30 μg/kg/min, anesthetized dog
[4] = infusion 300 μg/kg/min, anesthetized dog
[5] = 300 μg/kg/min, anesthetized dog
[6] = infusion at 30 and 300 μg/kg/min

Structure (SMILES): NCCc1ccc(O)c(O)c1 [Dopamine, reference compound]
- ED15 (anesthetized dogs [1]): 0.0035 mg/kg

Structure (SMILES): CC(=O)O.C[C@@](Cc1ccccc1)(NC(=O)[C@@H]1CCCN1C(=O)CCCc1ccc(O)cc1)C(=O)N[C@@H](CCCNC(=N)N)C(=O)O.O [Example 6, N-4-(4'-hydroxyphenyl)-butyryl-L-prolyl-D,L-α-methylphenylalanyl-L-arginine 1.5HOAc.1H2 O]
- increase of renal blood flow (anesthetized dogs [2]; [3]): +12%
- increase of renal blood flow (anesthetized dogs [2]; [4]): +11%

Structure (SMILES): CC(=O)O.CC(Cc1ccc(O)cc1)(NC(=O)[C@@H]1CCCN1C(=O)CCCc1ccc(O)cc1)C(=O)N[C@@H](CCCNC(=N)N)C(=O)O (stereo partly drawn) [Example 3, N-4-(4'-hydroxyphenyl)-butyryl-L-prolyl-D,L-α-methyltyrosyl-L-arginine acetic acid salt]
- decrease of renal vascular resistance (anesthetized dogs [2]; 3 μg/kg/min, anesthetized dog): -12
- increase of renal blood flow (anesthetized dogs [2]; 3 μg/kg/min, anesthetized dog): +8.0
- increase of renal blood flow (anesthetized dogs [2]; 30 μg/kg/min, anesthetized dog): +12.0
- decrease of renal vascular resistance (anesthetized dogs [2]; [5]): -11
- increase of renal blood flow (anesthetized dogs [2]; [5]): +11.0
- increase of renal blood flow after a cumulative dose (anesthetized dogs [2]; cumulative dose at 3, 30 and 300 μg/kg/min): 28%
- decrease of renal vascular resistance (anesthetized dogs [2]; [3]): -9

Structure (SMILES): CC(Cc1ccc(O)cc1)(NC(=O)[C@@H]1CCCN1C(=O)CCCc1ccc(O)cc1)C(=O)NCCCN.Cl (stereo partly drawn) [Example 4, N-4-(4'-hydroxyphenylbutyryl)-L-prolyl-D,L-α-methyltyrosine ω-aminopropylamide, hydrochloride]
- decrease of renal vascular resistance (anesthetized dogs [2]; 3 μg/kg/min, anesthetized dog): -9.5
- increase of renal blood flow (anesthetized dogs [2]; 3 μg/kg/min, anesthetized dog): +8.5

Structure (SMILES): COc1ccc(CC(C)(NC(=O)[C@@H]2CCCN2C(=O)CCCc2ccc(O)cc2)C(=O)NCCCN)cc1OC.Cl (stereo partly drawn) [Example 2, N-4-(4'-hydroxyphenyl)-butyryl-L-prolyl-D,L-α-methyl-3,4-dimethoxyphenylalanine 3-aminopropylamide hydrochloride]
- decrease of renal vascular resistance (anesthetized dogs [2]; infusion 3 μg/kg/min): -11%
- increase of renal blood flow (anesthetized dogs [2]; infusion 3 μg/kg/min): +13.5%
- renal blood flow (in words) (anesthetized dogs [2]; [6]): increased renal blood
- renal vascular resistance (in words) (anesthetized dogs [2]; [6]): decreased renal vascular resistance

Structure (SMILES): CC(Cc1ccccc1)(NC(=O)[C@@H]1CCCN1C(=O)CCCc1ccc(O)cc1)C(=O)NCCCN.Cl (stereo partly drawn) [Example 5, N-4-(4'-hydroxyphenylbutyryl)-L-prolyl-D,L-α-methylphenylalanine ω-aminopropylamide, hydrochloride]
- cumulative drug effect (anesthetized dogs [2]; infused in anesthetized dogs): demonstrated a cumulative drug effect
- increase of renal blood flow (anesthetized dogs [2]; [4]): +11.7%
- decrease of vascular renal resistance (anesthetized dogs [2]; infusion 300 μg/kg/min, anesthetized dogs): 11.3%

Structure (SMILES): CC(=O)O.COc1ccc(CC(C)(NC(=O)[C@@H]2CCCN2C(=O)CCCc2ccc(O)cc2)C(=O)N[C@@H](CCCNC(=N)N)C(=O)O)cc1OC (stereo partly drawn) [Example 1, N-4-(4'-hydroxyphenyl)-butyryl-L-prolyl-D,L-α-methyl-3,4-dimethoxyphenylalanyl-L-arginine acetic acid salt]
- decrease of renal vascular resistance (anesthetized dogs [2]; [3]): -21.3
- increase of renal blood flow (anesthetized dogs [2]; [3]): +18%
- ED15 (anesthetized dogs [1]): 0.506 mg/kg
